Laboratory results from patent US20250057859A1, “CANNABICHROMENEQUINONE AND ANALOGUES THEREOF, AND METHOD OF USING COMPOSITIONS THEREOF AS ANTI-INFLAMMATORY AGENTS” (Juva Life, Inc., priority 2021, published 2025).

What was measured:
[1] = biological target: T1, cannabinoid receptor 2 (CNR2) (Homo sapiens, UniProt P34972); assay: CB2 receptor agonist assay (cAMP Hunter eXpress, CNR2 CHO-K1); type: cell-based
T1 construct: host or cells: CHO-K1
Experimental: (§1) The assays were performed in cAMP Hunter eXpress cells engineered to overexpress naturally Gi/Go-coupled wildtype cannabinoid receptor 1 (CNR1) or cannabinoid receptor 2 (CNR2) in CHO-K1 cell type. In these cells, CB1 and/or CB2 agonists inhibit production of intracellular cAMP in response to stimulation with Forskolin. cAMP levels are determined using luminogenic detection reagents provided with the Hunter eXpress cAMP detection kit.
(§2) • Assay ready CNR1 CHO-K1 cells were obtained from Eurofins/Discover X, cat #95-0071E2 • Assay ready CNR2 CHO-K1 cells were obtained from Eurofins/Discover X, cat #95-0183E2 • Hunter eXpress cAMP detection kit was also from Discover X. The kit includes all cAMP detection reagents, Forskolin, complete cell plating medium and cell assay buffer.
(§3) The Assay-Ready CNR1 CHO-K1 or CNR2 CHO-K1 cells were thawed and re-suspended in pre-warmed Assay Complete plating medium and inoculated into 96well plate at a density of 30,000 cells in 100 μL. The plates with cells were incubated for 24 h at 37° C. in 5% CO2. […] The cells were stimulated with the Forskolin/compound buffer for 30 min. […] The plate was read on Biotek Synergy Neo2 reader in luminescent mode. […] Relative luminescence units (RLUs) were plotted against compound concentration to determine apparent EC50 values of the agonist compounds.

[2] = biological target: T2, cannabinoid receptor 1 (CNR1) (Homo sapiens, UniProt P21554); assay: CB1 receptor agonist assay (cAMP Hunter eXpress, CNR1 CHO-K1); type: cell-based; conditions: Forskolin-stimulated CNR1 CHO-K1
T2 construct: host or cells: CHO-K1
T2 sequence (P21554 whole entry): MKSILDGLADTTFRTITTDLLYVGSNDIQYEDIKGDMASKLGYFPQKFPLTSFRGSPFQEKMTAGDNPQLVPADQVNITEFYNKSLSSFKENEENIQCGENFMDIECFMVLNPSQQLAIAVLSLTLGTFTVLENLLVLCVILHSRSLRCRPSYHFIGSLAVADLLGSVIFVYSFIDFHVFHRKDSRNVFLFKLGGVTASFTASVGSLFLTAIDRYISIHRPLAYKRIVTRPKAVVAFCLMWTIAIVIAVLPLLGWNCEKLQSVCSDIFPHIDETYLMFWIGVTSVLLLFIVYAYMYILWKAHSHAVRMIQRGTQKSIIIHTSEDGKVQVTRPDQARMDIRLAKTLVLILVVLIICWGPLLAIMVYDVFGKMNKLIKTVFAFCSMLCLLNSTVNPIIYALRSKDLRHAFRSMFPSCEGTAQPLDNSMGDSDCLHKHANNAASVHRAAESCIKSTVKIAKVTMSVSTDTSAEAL
Experimental: as §1, §2, §3

[3] = PC3 cell line toxicity (Cell titer Glo viability); type: cell-based; conditions: human, PC3 prostate adenocarcinoma cells, 72 h
Experimental: (§4) 90 nL DMSO is added to control wells. […] Luminescence was then recorded using Synergy Neo2Multi-mode Reader.
(§5) Culture medium were purchased from ATCC, USA.

[4] = system: PC3 prostate adenocarcinoma cell line; assay: PC3 cell line toxicity (Cell titer Glo viability); type: cell-based; conditions: Homo sapiens, PC-3; PC3, 72 h
Experimental: as §4, §5

in vitro = conditions: human
Experimental: The half maximal inhibition concentration (IC50) for each compound was determined by harvesting cells during the logarithmic growth period and then counting cell number using hemocytometer. […] Then, using a Biomek FX, test articles were serially diluted (10 mM top, 3× dilution intervals) along with a reference inhibitor (1 mM top, 3× dilution intervals) in acoustic grade Labcyte plate. Then, using an acoustic dispenser (Labcyte550), compounds were added as serially diluted to plate with cells: 90 nL of serially diluted compounds per well. 90 nL DMSO is added to control wells. Test plates were incubated for 72 h in the humidified incubator at 37° C. with 5% CO2. 25 μL of reconstituted Cell titer Glo reagent was added to each well. Each test plate was then incubated for 20 min at room temperature. Luminescence was then recorded using Synergy Neo2Multi-mode Reader.
In order to calculate intersect IC50, a dose-response curve was fitted using nonlinear regression model with a sigmoidal dose response.
The formula for calculating surviving rate is shown below, and the intersect IC50 was calculated according to the dose-response curve generated by the software:
The compounds of interest were assessed cell viability in the HL-60 acute promyelocytic leukemia cell line (ATCC® CCL-240). […] Culture medium were purchased from ATCC, USA.

[5] = system: SK-MEL-28 melanoma cell line; assay: SK-MEL-28 cell line toxicity (Cell titer Glo viability); type: cell-based; conditions: Homo sapiens, SK-MEL-28, 72 h
Experimental: as §5, §4

[6] = as above; type: cell-based; conditions: human, SK-MEL-28 melanoma cells, 72 h
Experimental: as §5, §4

T1 sequence (P34972 whole entry): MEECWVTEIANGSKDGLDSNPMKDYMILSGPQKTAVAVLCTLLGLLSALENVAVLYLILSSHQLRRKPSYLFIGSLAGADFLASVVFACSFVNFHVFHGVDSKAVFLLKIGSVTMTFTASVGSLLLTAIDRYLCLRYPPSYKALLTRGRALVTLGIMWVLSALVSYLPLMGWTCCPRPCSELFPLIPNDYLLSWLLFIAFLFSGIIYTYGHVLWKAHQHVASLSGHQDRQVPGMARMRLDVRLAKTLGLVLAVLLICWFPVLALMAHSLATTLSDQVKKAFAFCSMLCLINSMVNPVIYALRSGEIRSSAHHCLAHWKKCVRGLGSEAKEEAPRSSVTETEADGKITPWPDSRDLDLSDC

Question: For `CCCCCc1cc(O)c2c(c1)OC(C)(C)C1CCC(CO)=CC21` (centres unmarked) [11-hydroxy-THC], which EC50 ([1]; agonist, cAMP, Forskolin-stimulated CNR2 CHO-K1) is on record?
Answer: 51 nM

Question: And the “Selectivity for CB2 over CB1” value ([1]; ratio of EC50 values)?
Answer: 0.02 fold

Question: What about the EC50 [2] of the same compound?
Answer: 1 nM

Question: For `CN[C@@H]1C[C@H]2O[C@@](C)([C@@H]1OC)n1c3ccccc3c3c4c(c5c6ccccc6n2c5c31)C(=O)NC4` [Staurosporine, staurosporine, reference compound], which viability at 72 h, 0.00017 µM ([3]; PC3, 0.00017 uM) is on record?
Answer: 102%

Question: And the viability at 72 h, 0.00051 µM ([3]; PC3, 0.00051 uM)?
Answer: 92.2%

Question: What about the viability at 72 h, 0.0015 µM ([3]; PC3, 0.0015 uM) of the same compound?
Answer: 67.1%

Question: And the viability at 72 h, 0.0046 µM ([3]; PC3, 0.0046 uM)?
Answer: 43.2%

Question: And the viability at 72 h, 0.014 µM ([3]; PC3, 0.014 uM)?
Answer: 34.5%

Question: And the viability at 72 h, 0.041 µM ([3]; PC3, 0.041 uM)?
Answer: 12.7%

Question: And the viability at 72 h, 0.12 µM ([3]; PC3, 0.12 uM)?
Answer: 10.3%

Question: What about the viability at 72 h, 0.37 µM ([3]; PC3, 0.37 uM) of the same compound?
Answer: 9.5%

Question: What about the viability at 72 h, 1.1 µM ([3]; PC3, 1.1 uM) of the same compound?
Answer: 8.4%

Question: What about the viability at 72 h, 3.3 µM ([3]; PC3, 3.3 uM) of the same compound?
Answer: 8.1%

Question: And the viability at 72 h, 10 µM ([3]; PC3, 10 uM)?
Answer: 6.8%

Question: What about the viability at 72 h, 30 µM ([3]; PC3, 30 uM) of the same compound?
Answer: 7.1%

Question: And the IC50 [4]?
Answer: ~4 nM

Question: And the viability at 0.00017 µM (in vitro)?
Answer: 98.3%

Question: What about the viability at 0.00051 µM (in vitro) of the same compound?
Answer: 96.5%

Question: What about the viability at 0.0015 µM (in vitro) of the same compound?
Answer: 98.3%

Question: And the viability at 0.0046 µM (in vitro)?
Answer: 90.4%

Question: What about the viability at 0.014 µM (in vitro) of the same compound?
Answer: 66.6%

Question: And the viability at 0.041 µM (in vitro)?
Answer: 36.3%

Question: And the viability at 0.12 µM (in vitro)?
Answer: 27.7%

Question: What about the viability at 0.37 µM (in vitro) of the same compound?
Answer: 18.7%

Question: And the viability at 1.1 µM (in vitro)?
Answer: 13.9%

Question: And the viability at 3.3 µM (in vitro)?
Answer: 11.7%

Question: What about the viability at 10 µM (in vitro) of the same compound?
Answer: 10.4%

Question: What about the viability at 30 µM (in vitro) of the same compound?
Answer: 9.6%

Question: And the IC50 [5]?
Answer: ~210 nM

Question: And the viability at 72 h, 0.00017 µM ([6]; SK-MEL-28, 0.00017 uM)?
Answer: 96.2%

Question: And the viability at 72 h, 0.00051 µM ([6]; SK-MEL-28, 0.00051 uM)?
Answer: 94.9%

Question: And the viability at 72 h, 0.0015 µM ([6]; SK-MEL-28, 0.0015 uM)?
Answer: 96.7%

Question: And the viability at 72 h, 0.0046 µM ([6]; SK-MEL-28, 0.0046 uM)?
Answer: 94.1%

Question: What about the viability at 72 h, 0.014 µM ([6]; SK-MEL-28, 0.014 uM) of the same compound?
Answer: 92.9%

Question: What about the viability at 72 h, 0.041 µM ([6]; SK-MEL-28, 0.041 uM) of the same compound?
Answer: 70%

Question: What about the viability at 72 h, 0.12 µM ([6]; SK-MEL-28, 0.12 uM) of the same compound?
Answer: 53.9%

Question: And the viability at 72 h, 0.37 µM ([6]; SK-MEL-28, 0.37 uM)?
Answer: 41.1%

Question: And the viability at 72 h, 1.1 µM ([6]; SK-MEL-28, 1.1 uM)?
Answer: 33%

Question: What about the viability at 72 h, 3.3 µM ([6]; SK-MEL-28, 3.3 uM) of the same compound?
Answer: 17.3%

Question: What about the viability at 72 h, 10 µM ([6]; SK-MEL-28, 10 uM) of the same compound?
Answer: 8.55%

Question: What about the viability at 72 h, 30 µM ([6]; SK-MEL-28, 30 uM) of the same compound?
Answer: 8.85%
